This note sets out measurements from article PMC12124721, “Impact of Fluorine Pattern on Lipophilicity and Acid–Base Properties of 2‑(Thiofluoroalkyl)pyridines: Insights from Experiments and Statistical Modeling” (Journal of Medicinal Chemistry, 2025).

A short description of data set [1]: pKa of conjugate acid by 1H NMR titration (nonfluorinated analogues). The format is physicochemical. To be noted: aqueous solutions of different pH, conjugate acid (pyridinium), water. On the procedure:
The measurements were conducted on the corresponding conjugate acids of the thiofluoroalkylpyridines using an ^19F NMR method developed by Leito and coworkers. For nonfluorinated analogues, pK a was determined by an analogous method using ^1H NMR. […] Likewise, internal difluorination of the thioethyl group led to a more acidic pyridinium (9, pK a 2.05) compared to terminal difluorination (6, pK a 2.43). […] Computationally, it is straightforward to determine pK a values for molecular organic systems, obtaining quantitative predictions via fitting to experimental data (Table S12).
A protocol developed by the group of Leito was followed for the determination of the […] of fluorinated 2-substituted pyridines using ^19F NMR. […] Next, the tube was caped and shaken vigorously, and the pH of the resulting solution was measured inside the tube with a pH meter with an NMR-tube probe. […] Next, a standard ^19F NMR experiment was recorded to determine the chemical shifts of the external standard and the sample of interest. […] The battery of NMR samples at different pH values was measured. • Data processing: using MestReNova NMR software, the chemical shifts of the pyridines were determined. […] Next, the selected signal for each pyridine was plotted against the pH of the measured solution. […]

Data set [2] is described as follows: logD7.4 by shake-flask HPLC-UV for nonfluorinated pyridines. The format is physicochemical. To be noted: nonfluorinated pyridines, mean of three. On the procedure:
A protocol described by Ràfols and coworkers was followed for the determination of the log D ^7.4 values of the nonfluorinated pyridines. The 4-step process was replicated three times for each compound: • Stocksolution preparation: in a 12 mL vial, 15 mg of the pyridine was charged. Then, 6 mL of phosphate buffer at pH 7.4 was added, and the mixture was vigorously shaken for 2 h. An aliquot of this stock solution was measured by HPLC-UV. • Partitioning: three partitioning experiments were carried out for each compound. To prepare an experiment, in a vial containing a magnetic stir bar, a known amount of the stock solution was introduced, followed by another known amount of 1-octanol. Next, the biphasic mixture was stirred for 2 h and left to stand overnight to allow phase partition. For the selection of the different volume ratios, it was followed reported recommendations, although 1:1, 10:1, and 1:10 octanol:stock solutions were usually employed. • Sample preparation and measurement: to prepare the sample, 0.1 mL of the aqueous phase was taken and introduced in a 2 mL vial, following the precautions described in the previous section. The samples were then analyzed with the same HPLC-UV method as that of the stock solution. The log D ^7.4 value was obtaining by comparing the initial amount of pyridine in the aqueous phase before and after partitioning, taking into consideration the volume rates.

Each structure is given as a SMILES string.

As to `CCSc1ccccn1` [Compound 5, 2-(Ethylthio)pyridine], the pKa in data set [1] worked out at 3.68. In addition, the logD7.4 in data set [2] (1-octanol/phosphate buffer pH 7.4, HPLC-UV) is on record as 2,26. The molecule also had a logD in data set [2] (1-octanol/phosphate buffer, pH 7.4, 1-octanol/phosphate buffer pH 7.4, HPLC-UV) of 2.26.

The pKa is the negative logarithm of the acid dissociation constant. Low values mean a stronger acid or weaker base, high ones a weaker acid or stronger base. As usually defined, the logD is lipophilicity at a set pH, counting ionised and neutral species.
